Experimental data reported in patent US8999669B2, “Detection and visualization of the cell cycle in living cells” (Ludwig-Maximilians Universitat München, priority 2009, dated 2015).

Test system: HeLa cells
Assay: mitosis assay with HeLa cell-line stably expressing PCNA3p16-GFP (clone 9.6)
Format: cell-based, human
Details: 0.1 μg/ml, 13 h time series, 30 min intervals
Experimental: HeLa cell-lines stably expressing PCNA3p16-GFP (clone 9.6; amino acid sequence of SEQ ID NO: 2 fused to GFP) were seeded at 50% confluency in live cell imaging chamber (ibidi μ-Slide 8 well). After incubation over night, normal growth medium (DMEM+10% FCS) was replaced with CO2 adapted live-cell medium (DMEM without phenol red+10% FCS+25 mM Hepes Buffer). Subsequently the imaging slide was placed on an INCell Analyzer 1000 (GE Healthcare) high content microscope equipped with an environmental control chamber, adjusted to 37° C. and 5% CO2. Images were acquired with an 20X/0.45 NA air objective using the appropriate filterset for the fluorescent protein GFP (HQ480—40X/HQ535—50M) and an exposure time of 750 ms. For the live cell imaging 15 fields of view per well were selected and a 13 hour time series started with time intervals of 30 min. After the first time point 0.1 μg/ml Colcemid was added directly to the medium of one well; control cells were left untreated (FIG. 11A). Colcemid is a mitotic inhibitor drug such as Colchicine, which depolymerises microtubules and limits microtubule formation (inactivates spindle fibre formation), thus arresting cells in metaphase.
The acquired data set was analyzed with the automated image evaluation and quantification program INCell workstation. […] The amount of mitotic cells per time point was counted and evaluated.

With CN[C@H]1CCc2cc(OC)c(OC)c(OC)c2-c2ccc(OC)c(=O)cc21 [colcemid, Colcemid] the “mitotic cells in treated cell population” value was “increase of mitotic cells”.
